Results taken from patent US12492410B2, “Engineered cytolytic immunecell” (Autolus Limited, priority 2018, dated 2025).

How the values were obtained:
[1] = system: HEK293T cells; test: Minocycline induced secretion of ER retained IL12, IL12 ELISA of supernatant; format: cell-based; settings: IL12 fused to the peptide, in the presence of KDEL anchored minocycline dAb; minocycline 0 μM; all time points (2 and 4 hours)
Experimental: FIGS. 5A, 5B and 5C—Minocycline induced secretion of ER retained IL12 HEK293T cells were transiently transfected with constructs expressing the intracellular KDEL tagged anti-minocycline dAb and dAb-specific peptide (GWARA or PWAYS) tagged IL-12 (A). Transfection efficiency determined by staining for HA marker expression with transfection efficiency ranging from 50-70% (B). […] Supernatant was collected 2 and 4 hours post minocycline addition and IL12 ELISA readout carried out (C).
The KDEL amino acid sequence was used to retain proteins within the ER/Golgi apparatus. The minocycline specific dAb was tagged with the KDEL sequence (SEQ ID NO: 29) thus anchoring it within with the ER/Golgi and a molecule of interest (IL12) is in turn tagged with the peptide with affinity to the dAb causing its retention. Upon addition of minocycline, the dAb-peptide complex dissociates enabling secretion of the peptide-tagged molecule.
HEK293T cells were seeded at […] in 96-well plates to achieve confluency of 50-60% for next day transfection. A transfection master mix was made by adding 30 μL of GeneJuice transfection reagent to 470 μL plain IMDM and incubating for 5 minutes. For each well, 0.13 μg of plasmid DNA was then added to 5.2 uL of the IMDM-Genejuice master mix and incubated for 15 minutes. Transfection mix containing the GeneJuice-DNA complex was then added to the cells. […]

[2] = system: minocycline dAb (SEQ ID NO: 8); test: Phage-peptide screening for minocycline-displaceable binding to minocycline dAb; settings: for displaceable specificity for minocycline dAb: minocycline dAb-Fc immobilised on beads, with and without 1 μM minocycline, control antibody SEQ ID NO: 13; for affinity of peptide for minocycline dAb: stated in words
minocycline dAb (SEQ ID NO: 8), sequence (as listed by the source): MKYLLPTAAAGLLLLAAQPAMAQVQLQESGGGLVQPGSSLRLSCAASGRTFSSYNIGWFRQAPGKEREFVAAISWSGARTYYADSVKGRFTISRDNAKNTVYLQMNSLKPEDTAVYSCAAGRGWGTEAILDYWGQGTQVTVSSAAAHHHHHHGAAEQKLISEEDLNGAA
Experimental: FIG. 4—Graphs showing minocycline displaceable binding of peptides SEQ ID NO: 34, SEQ ID NO: 35, SEQ ID NO: 36 and SEQ ID NO: 37 to minocycline dAb (SEQ ID NO: 8) versus control antibody (SEQ ID NO: 13).
A minocycline dAb-Fc was immobilised on beads. The minocycline dAb was encoded by SEQ ID NO: 8. Phage-peptide colony screening was performed with and without 1 μM minocycline.
An antibody comprising SEQ ID NO: 13 was used as a control antibody (the control antibody comprises different CDRs to SEQ ID NO: 8).

| Sequence | IL12 secretion [1] | displaceable specificity for minocycline dAb [2] | affinity of peptide for minocycline dAb [2] |
| --- | --- | --- | --- |
| ACPGWARAFC (minocycline peptide mimic) [SEQ ID NO: 34] | concentration dependent increase | displaceable specificity | high affinity |
| ACPHWAQAFC (minocycline peptide mimic) [SEQ ID NO: 35] | – | displaceable specificity | – |
| ACPPWAYSFC (minocycline peptide mimic) [SEQ ID NO: 37] | concentration dependent increase | displaceable specificity | low affinity |
| ACPQWAMMFC (minocycline peptide mimic) [SEQ ID NO: 36] | – | displaceable specificity | – |
